Test results as given in patent US20130123355A1, “Fatty acids and metal ions compositions and uses thereof” (priority 2011, published 2013).

Key:
rats = assay: tail flick test; format: in vivo; conditions: diet
Experimental: On Zn-EPA or zinc gluconate supplemented diet, rats consume about 1 mg/kg body weight/day of elemental zinc, on a feeding schedule so as to maintain 85% of its free-feeding weight.

[1] = test system: Patients presenting early symptoms of stroke; assay: Stroke Rehabilitation Assessment of Movement (STREAM); format: in vivo, human; conditions: with standard of care
Experimental: Patients presenting early symptoms of stroke, in addition to being provided standard of care for stroke, are prescribed Mg-DHA or Mg Citrate capsules formulated to provide a daily dose of 150 mg of elemental magnesium or DHA capsules for two weeks when recovery from stroke is assessed.
Patients presenting early symptoms of stroke, in addition to being provided standard of care for stroke, are prescribed Mg-DHA-LysoPC or Mg Citrate capsules prepared and formulated to provide 150 mg of elemental magnesium, or DHA-LysoPC capsules for two weeks when recovery is assessed.
Patients presenting early symptoms of stroke, in addition to being provided standard of care for stroke, are prescribed Mg-EPA or Mg Citrate capsules formulated to provide 150 mg of elemental magnesium, or EPA capsules for two weeks when recovery from stroke is assessed.
Patients presenting early symptoms of stroke, in addition to being provided standard of care for stroke, are prescribed either Zn-DHA or zinc gluconate capsules formulated to provide a daily dosage of 30 mg of elemental Zn, or DHA capsules for two weeks when recovery from stroke is assessed.
Patients presenting early symptoms of stroke, in addition to being provided standard of care for stroke, are prescribed either Zn-DHA-LysoPC or zinc gluconate capsules that provide a daily dosage of 30 mg of elemental Zn, or DHA-LysoPC capsules for two weeks when recovery is assessed.
Patients presenting early symptoms of stroke, in addition to being provided standard of care for stroke, are prescribed either Zn-EPA or zinc gluconate capsules formulated to provide a daily dosage of 30 mg of elemental Zn, or EPA capsules for two weeks when recovery from stroke is assessed.

human subjects = assay: Montreal Cognitive Assessment and Mini-Mental State Examination; format: in vivo
Experimental: (§1) Mg-DHA composition is prepared and formulated as capsules to provide a daily dose of 150 mg of elemental magnesium. The human subjects are divided into control and test groups and provided DHA, Mg Citrate (equivalent to 150 mg of elemental magnesium) or Mg-DHA capsules for 30 consecutive days. On day 1 and day 30, two cognitive tests, Montreal Cognitive Assessment and Mini-Mental State Examination (Int J Geriatr Psychiatry. 2010 February; 25(2):111-20) are administered.
as §1, with “Mg-DHA-LysoPC” for “Mg-DHA”, “either DHA-LysoPC,” for “DHA,”, “magnesium), Mg-DHA-LysoPC” for “magnesium) or Mg-DHA”
Mg-EPA composition is prepared and formulated as capsules to provide a daily dose of 150 mg of elemental magnesium. The human subjects are divided into control and test groups and provided EPA, Mg Citrate (equivalent to 150 mg elemental magnesium), or Mg-EPA capsules for 30 consecutive days. On day 1 and day 30, two cognitive tests, Montreal Cognitive Assessment and Mini-Mental State Examination (Int J Geriatr Psychiatry. 2010 February; 25(2):111-20) are administered.
as §1, with “Zn-DHA or zinc gluconate” for “Mg-DHA”, “30” for “a daily dose of 150”, “zinc.” for “magnesium.”, “zinc gluconate,” for “Mg Citrate (equivalent to 150 mg of elemental magnesium)”, “Zn-DHA capsules, 3 times a day” for “Mg-DHA capsules”
(§2) Zn-DHA or zinc gluconate composition is prepared and formulated as capsules to provide 30 mg of elemental zinc. The human subjects are divided into control and test groups and provided DHA-LysoPC, zinc gluconate, or Zn-DHA-LysoPC capsules, 3 times a day for 30 consecutive days. On day 1 and day 30, two cognitive tests, Montreal Cognitive Assessment and Mini-Mental State Examination (Int J Geriatr Psychiatry. 2010 February; 25(2):111-20) are administered.
as §2, with “provide a daily dosage of” for “provide”, “provided EPA,” for “provided DHA-LysoPC,”, “or Zn-EPA capsules” for “or Zn-DHA-LysoPC capsules, 3 times a day”

[2] = about 1 mg/kg body weight/day elemental zinc, days 0, 7, 14, 21, compared with zinc gluconate or the fatty acid alone
[3] = 30 mg elemental Zn daily for two weeks, compared with the fatty acid alone or zinc gluconate
[4] = capsules providing 30 mg elemental zinc, 30 consecutive days, compared with the fatty acid alone or zinc gluconate
[5] = about 50 mg/Kg/day elemental Mg, days 0, 7, 14, 21, compared with Mg Citrate or the fatty acid alone
[6] = 150 mg elemental magnesium daily for two weeks
[7] = capsules, 150 mg elemental magnesium daily for 30 days, compared with the fatty acid alone or Mg Citrate

SMILES | latency of tail flick reflex (rats; [2]) | STREAM scores, recovery from stroke [1, 3] | cognitive tests (Montreal Cognitive Assessment, Mini-Mental State Examination) (human subjects; [4]) | latency of tail flick reflex (rats; [5]) | STREAM scores, recovery from stroke [1, 6] | cognitive tests (Montreal Cognitive Assessment, Mini-Mental State Examination) (human subjects; [7])
CC/C=C\C/C=C\C/C=C\C/C=C\C/C=C\CCCC(=O)[O-].CC/C=C\C/C=C\C/C=C\C/C=C\C/C=C\CCCC(=O)[O-].[Zn+2] [Zn-EPA] | Statistically significant increased latency | statistically significant improvement | statistically significant improvement |  |  | 
CC/C=C\C/C=C\C/C=C\C/C=C\C/C=C\C/C=C\CCC(=O)[O-].CC/C=C\C/C=C\C/C=C\C/C=C\C/C=C\C/C=C\CCC(=O)[O-].[Zn+2] [Zn-DHA] | Statistically significant increased latency | statistically significant improvement | statistically significant improvement |  |  | 
CC/C=C\C/C=C\C/C=C\C/C=C\C/C=C\C/C=C\CCC(=O)[O-].CC/C=C\C/C=C\C/C=C\C/C=C\C/C=C\C/C=C\CCC(=O)[O-].[Mg+2] [Mg-DHA] |  |  |  | Statistically significant increased latency | statistically significant improvement | statistically significant improvement
CC/C=C\C/C=C\C/C=C\C/C=C\C/C=C\CCCC(=O)[O-].CC/C=C\C/C=C\C/C=C\C/C=C\C/C=C\CCCC(=O)[O-].[Mg+2] [Mg-EPA] |  |  |  | Statistically significant increased latency | statistically significant improvement | statistically significant improvement
